Reference: patent publication US7825146B2, “Sulfonamide derivative having isoxazole ring” (Shionogi & Co., Ltd., priority 2003, dated 2010)

Tests used:
Format in all cases: biochemical
MMP-12 = target: T1, MMP-12 (Homo sapiens, UniProt P39900); assay: Assay for inhibitory activities on MMPs (fluorogenic MOCAc peptide substrate): MMP-12; conditions: catalytic domain 100Phe-263Gly
T1 construct: In regard to MMP-12, catalytic domain(^100Phe˜^263Gly) was amplified with RT-PCR; His-tag; enterokinase digestion-site; made in house
Description: (§1) In regard to MMP-12, catalytic domain(^100Phe˜^263Gly) was amplified with RT-PCR from Human Placenta Total RNA. This was cloned in Escherichia. coli expression vector pTrc99AHE inserted with His-tag sequence and enterokinase digestion-site, induced and expressed by IPTG (Isopropyl-β-D-thiogalactopyranoside) and expressed in a insoluble fraction. Isolation of MMP-12 from an insoluble fraction was carried out by dissolving in modifier (6M urea) by a usual method and purification with metal chelate chromatography (Ni Chelateing Sepharose). And then removing modifier (6M urea) with dialysis and refolding of the enzyme spontaneously gave activated MMP-12.
(§2) The enzymatic activity on MMPs was analyzed by the method described in “C. Graham Knight, Frances Willenbrock and Gillian Murphy: A novel coumarin-labelled peptide for sensitive continuous assays of the matrix metalloproteinases: FEBS LETT., 296, (1992), 263-266”. The substrate: MOCAc-Pro-Leu-Gly-Leu-A2Pr(DNP)-Ala-Arg-NH2 was purchased from Peptide Institute, Inc., Osaka, Japan. The measurement of the inhibitory activities (IC50) was carried out by the following four methods; • (A) Reaction with substrate, enzyme (MMPs) and inhibitor • (B) Reaction with substrate and inhibitor, without enzyme • (C) Reaction with substrate and enzyme (MMPs), without inhibitor • (D) Reaction with substrate only IC50 values were calculated by using the following formula and each fluorescence values of above four methods (A to D).
(§3) The value of inhibitory activity against MMP-2, MMP-8, MMP-9, MMP-12, and MMP-13 measured by above mentioned methods are shown in Table 36, 37, 38, 39, and 40 respectively.

MMP-13 = target: T2, MMP-13 (Homo sapiens, UniProt P45452); assay: Assay for inhibitory activities on MMPs (fluorogenic MOCAc peptide substrate): MMP-13; conditions: Table 40
T2 construct: catalytic domain (^104Tyr˜^267Gly) was amplified with RT-PCR; His-tag; enterokinase digestion-site; made in house
Description: as §1, with “MMP-13, mRNA was prepared from carcinoma cell SW1353 derived from human cartilage stimulate by IL-1, TNF and” for “MMP-12,”, “domain (^104Tyr˜^267Gly)” for “domain(^100Phe˜^263Gly)”, “RT-PCR.” for “RT-PCR from Human Placenta Total RNA.”, “MMP-13” for “MMP-12”, “dialyze” for “dialysis”, “MMP-13.” for “MMP-12.”
as §2, §3

MMP-8 = target: T3, MMP-8 (Homo sapiens, UniProt P22894); assay: Assay for inhibitory activities on MMPs (fluorogenic MOCAc peptide substrate): MMP-8; conditions: catalytic domain 99Phe-262Gly
T3 construct: In regard to MMP-8, catalytic domain (^99Phe˜^262Gly) was amplified with PCR; His-tag; enterokinase digestion-site; made in house
Source text: In regard to MMP-8, catalytic domain (^99Phe˜^262Gly) was amplified with PCR using commercial available Human Bone Marrow cDNA. This was cloned in Escherichia. coli expression vector pTrc99AHE inserted with His-tag sequence and enterokinase digestion-site, induced and expressed by IPTG (Isdpropyl-β-D-thiogalactopyranoside) and expressed in a insoluble fraction (Thau F. Ho, M. Walid Qoronfleh, Robert C. Wahl, Trica A. Pulvino, Karen J. Vavra, Joe Falvo, Tracey M. Banks, Patricia G. Brake and Richard B. Ciccarelli: Gene expression, purification and characterization of recombinant human neutrophil collagenase. Gene 146, (1994) 297-301, Prepared by the a improved method of this material). Isolation of MMP-8 from an insoluble fraction was carried out by dissolving in modifier (6M urea) by a usual method and purification with metal chelate chromatography. And then removing modifier (6M urea) with dialysis and refolding of the enzyme spontaneously gave activated MMP-8.
as §2, §3

T1 sequence (P39900 100-263): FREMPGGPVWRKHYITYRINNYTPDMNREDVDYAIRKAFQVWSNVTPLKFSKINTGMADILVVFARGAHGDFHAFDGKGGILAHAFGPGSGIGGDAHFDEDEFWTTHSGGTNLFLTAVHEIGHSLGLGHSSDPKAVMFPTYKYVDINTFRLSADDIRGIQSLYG
T3 sequence (P22894 99-262): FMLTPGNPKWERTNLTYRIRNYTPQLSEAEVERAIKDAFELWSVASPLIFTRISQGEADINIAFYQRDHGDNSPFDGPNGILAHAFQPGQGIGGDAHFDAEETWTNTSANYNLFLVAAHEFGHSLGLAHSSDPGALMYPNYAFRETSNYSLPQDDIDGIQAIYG

Row | Compound | IC50 (MMP-12) [µM] | IC50 (MMP-13) [µM] | IC50 (MMP-8) [µM]
1 | CC(C)C[C@@H](NS(=O)(=O)c1ccc(-c2cc(-c3ccc(C(C)C)cc3)on2)cc1)C(=O)O [Example C-59] |  | 0.000889 | 
2 | CC(C)C[C@H](NS(=O)(=O)c1ccc(-c2cc(-c3ccc4c(c3)OCO4)on2)cc1)C(=O)O [Example C-86] | 0.000545 |  | 0.00478
3 | CC(C)[C@H](NS(=O)(=O)c1ccc(-c2cc(-c3ccc(OC(F)(F)F)cc3)on2)cc1)C(=O)O [Example C-26] | 0.000148 | 0.000884 | 
4 | CC(C)[C@@H](NS(=O)(=O)c1ccc(-c2cc(-c3ccc4c(c3)CCO4)on2)cc1)C(=O)O [Example C-47] | 0.000264 |  | 0.00107
5 | COc1ccc(-c2cc(-c3ccc(S(=O)(=O)N[C@@H](CC(C)C)C(=O)O)cc3)on2)cc1F [Example A-79] | 0.000622 |  | 0.00111
6 | CC(C)c1ccc(-c2cc(-c3ccc(S(=O)(=O)N[C@H](Cc4c[nH]c5ccccc45)C(=O)O)cc3)on2)cc1 [Example A-111] |  | 0.000465 | 
7 | CC(C)[C@H](NS(=O)(=O)c1ccc(-c2cc(-c3ccc4c(c3)OCO4)on2)cc1)C(=O)O [Example C-45] | 0.000641 |  | 0.00366
8 | CC(C)[C@H](NS(=O)(=O)c1ccc(-c2cc(-c3ccc4c(c3)CCO4)on2)cc1)C(=O)O [Example C-48] | 0.0002 |  | 0.000892
9 | CC(C)[C@@H](NS(=O)(=O)c1ccc(-c2cc(-c3ccc(C(F)(F)F)cc3)on2)cc1)C(=O)O [Example C-27] | 0.000316 | 0.000758 | 
10 | CCc1ccc(-c2cc(-c3ccc(S(=O)(=O)N[C@H](CC(=O)O)C(=O)O)cc3)no2)cc1 [Example C-113] |  | 0.000733 | 
11 | O=C(O)C[C@@H](NS(=O)(=O)c1ccc(-c2cc(-c3ccc(C(F)(F)F)cc3)on2)cc1)C(=O)O [Example C-115] |  | 0.000643 | 
12 | CCCc1ccc(-c2cc(-c3ccc(S(=O)(=O)N[C@H](CC(=O)O)C(=O)O)cc3)no2)cc1 [Example C-114] | 0.000578 | 0.000223 | 
13 | CSCC[C@@H](NS(=O)(=O)c1ccc(-c2cc(-c3ccc(OC(F)(F)F)cc3)no2)cc1)C(=O)O [Example A-108] | 0.000764 | 0.000635 | 
14 | CC(C)C[C@H](NS(=O)(=O)c1ccc(-c2cc(-c3ccc(C(C)C)cc3)on2)cc1)C(=O)O [Example C-60] | 0.000335 | 0.000919 | 
15 | CC(C)C[C@H](NS(=O)(=O)c1ccc(-c2cc(-c3ccc4c(c3)CCO4)on2)cc1)C(=O)O [Example C-91] | 0.000184 |  | 0.00108
16 | CSCC[C@@H](NS(=O)(=O)c1ccc(-c2cc(-c3ccc(C(C)C)cc3)no2)cc1)C(=O)O [Example A-107] |  | 0.000658 | 
17 | CC(C)C[C@H](NS(=O)(=O)c1ccc(-c2cc(-c3ccc(Cl)c(Cl)c3)on2)cc1)C(=O)O [Example C-88] | 0.000184 |  | 0.00437

Other lines, results leading:

Row | IC50 (MMP-12) [µM] | IC50 (MMP-13) [µM] | IC50 (MMP-8) [µM] | Compound
18 | 0.000287 | 0.000403 |  | CC(C)c1ccc(-c2cc(-c3ccc(S(=O)(=O)N[C@H](C(=O)O)C(C)C)cc3)no2)cc1 [Example C-16]
19 | 0.000447 |  | 0.00397 | COc1ccc(-c2cc(-c3ccc(S(=O)(=O)N[C@H](C(=O)O)C(C)C)cc3)no2)cc1 [Example C-19]
20 | 0.000172 | 0.000702 |  | CCc1ccc(-c2cc(-c3ccc(S(=O)(=O)N[C@H](C(=O)O)C(C)CC)cc3)no2)cc1 (stereo partly shown) [Example C-95]
21 | 0.00014 | 0.000837 |  | CCC(C)[C@H](NS(=O)(=O)c1ccc(-c2cc(-c3ccc(OC(F)(F)F)cc3)on2)cc1)C(=O)O (stereo partly shown) [Example C-102]
22 | 0.000649 | 0.000971 |  | CCc1ccc(-c2cc(-c3ccc(S(=O)(=O)N[C@H](C(=O)O)C(C)CC)cc3)no2)s1 (stereo partly shown) [Example C-99]
23 | 0.000898 |  | 0.00397 | COc1ccc(-c2cc(-c3ccc(S(=O)(=O)N[C@@H](C(=O)O)C(C)C)cc3)on2)cc1Cl [Example A-56]
24 | 0.000866 |  | 0.00177 | CC(C)[C@H](NS(=O)(=O)c1ccc(-c2cc(-c3ccc(Cl)s3)on2)cc1)C(=O)O [Example C-34]
25 | 0.000758 |  | 0.00124 | Cc1ccc(-c2cc(-c3ccc(S(=O)(=O)N[C@H](C(=O)O)C(C)C)cc3)no2)s1 [Example C-30]
26 | 0.000201 | 0.000757 |  | CCc1ccc(-c2cc(-c3ccc(S(=O)(=O)N[C@H](C(=O)O)C(C)C)cc3)no2)cc1 [Example C-13]
27 | 0.000384 | 0.000853 | 0.00419 | COc1ccc(-c2cc(-c3ccc(S(=O)(=O)N[C@@H](C(=O)O)C(C)C)cc3)no2)cc1 [Example C-18]
28 | 0.000266 | 0.000836 | 0.00263 | COc1ccc(-c2cc(-c3ccc(S(=O)(=O)N[C@@H](C(=O)O)C(C)C)cc3)no2)cc1F [Example C-51]
29 | 0.000228 |  | 0.00229 | CCC(C)[C@H](NS(=O)(=O)c1ccc(-c2cc(-c3ccc(OC)cc3)on2)cc1)C(=O)O (stereo partly shown) [Example C-96]
30 | 0.000239 | 0.000578 | 0.00421 | CCCCc1ccc(-c2cc(-c3ccc(S(=O)(=O)N[C@@H](C(=O)O)C(C)C)cc3)no2)cc1 [Example C-17]
31 | 0.000172 |  | 0.00433 | CC(C)[C@H](NS(=O)(=O)c1ccc(-c2cc(-c3ccc(Cl)c(F)c3)on2)cc1)C(=O)O [Example C-37]
32 | 0.000677 |  | 0.00198 | Cc1ccc(-c2cc(-c3ccc(S(=O)(=O)N[C@@H](CC(C)C)C(=O)O)cc3)no2)s1 [Example C-75]
33 | 0.000239 | 0.000578 | 0.00421 | CCC(C)[C@H](NS(=O)(=O)c1ccc(-c2cc(-c3ccc(SC)cc3)on2)cc1)C(=O)O (stereo partly shown) [Example C-97]
34 | 0.000281 |  | 0.00489 | CCC(C)[C@H](NS(=O)(=O)c1ccc(-c2cc(-c3ccc(Cl)c(Cl)c3)on2)cc1)C(=O)O (stereo partly shown) [Example C-104]
35 | 0.000649 |  | 0.00359 | CC(C)[C@@H](NS(=O)(=O)c1ccc(-c2cc(-c3ccc4c(c3)OCO4)on2)cc1)C(=O)O [Example C-44]
36 | 0.000289 | 0.000739 |  | CSc1ccc(-c2cc(-c3ccc(S(=O)(=O)N[C@H](C(=O)O)C(C)C)cc3)no2)cc1 [Example C-11]
37 |  |  | 0.00252 | Cc1ccc(-c2cc(-c3ccc(S(=O)(=O)N[C@@H](C(=O)O)C(C)(C)C)cc3)no2)s1 [Example C-110]
38 | 0.000629 |  | 0.00103 | CCC(C)[C@H](NS(=O)(=O)c1ccc(-c2cc(-c3ccc(C)s3)on2)cc1)C(=O)O (stereo partly shown) [Example C-98]
39 | 0.0008 |  | 0.00286 | CC(C)C[C@H](NS(=O)(=O)c1ccc(-c2cc(-c3ccc(Cl)s3)on2)cc1)C(=O)O [Example C-79]
40 |  | 0.000943 |  | CCc1ccc(-c2cc(-c3ccc(S(=O)(=O)N[C@@H](C(=O)O)C(C)C)cc3)on2)cc1 [Example A-26]
41 | 0.000294 |  | 0.00379 | CC(C)[C@H](NS(=O)(=O)c1ccc(-c2cc(-c3ccc(Cl)c(Cl)c3)on2)cc1)C(=O)O [Example C-41]
